ChEMBL document CHEMBL3853274, “Ibogan, Aspidosperman, Vincamine, and Bisindole Alkaloids from a Malayan Tabernaemontana corymbosa: Iboga Alkaloids with C-20α Substitution” (J Nat Prod, 2016)

What was measured:
Type in all cases: functional, cell-based
[1] = Cytotoxicity against vincristine-sensitive human KB cells after 72 hrs by MTT assay
[2] = Cytotoxicity against vincristine-resistant human KB/VJ300 cells after 72 hrs by MTT assay; conditions: KB/VJ300, 72 h
[3] = Cytotoxicity against vincristine-resistant human KB/VJ300 cells in presence of 0.12 uM vincristine after 72 hrs by MTT assay; conditions: KB/VJ300, 72 h

For C/C=C1/CN(C)[C@H]2Cc3c([nH]c4ccccc34)[C@@H](c3ccc4c5c([nH]c4c3)[C@@H]3C[C@H]4C[C@H]([C@@H](C)O)[C@@H]3N(CC5)C4)C[C@@H]1[C@@H]2C(=O)OC, the IC50 [1] was 3.3 µM, the IC50 [2] was 2.7 µM and the IC50 [3] was 1.3 µM.
C/C=C1/CN(C)[C@H]2Cc3c([nH]c4ccccc34)[C@@H](c3ccc4c5c([nH]c4c3)[C@@H]3C[C@H]4C[C@H]([C@H](C)O)[C@@H]3N(CC5)C4)C[C@@H]1[C@@H]2C(=O)OC showed an IC50 [1] of 4.6 µM, an IC50 [2] of 4.1 µM and an IC50 [3] of 1.8 µM.
Molecule C/C=C1/CN(C)[C@H]2Cc3c([nH]c4ccccc34)[C@@H](c3ccc4c5c([nH]c4c3)[C@@H]3C[C@H]4C[C@H](CC)[C@@H]3N(CC5)C4)C[C@@H]1[C@@H]2C(=O)OC has an IC50 [1] of 1.2 µM, an IC50 [2] of 1.4 µM and an IC50 [3] of 0.9 µM.
